According to patent US20230381192A1, “METHODS FOR CONTROLLING AND PREDICTING RECOVERY AFTER NMBA ADMINISTRATION” (Cornell University, priority 2020, published 2023):
Where two headings read alike, the source gives them in different places.

Columns and labels:
[1] = Phase I pharmacokinetics after single IV bolus; format: in vivo; conditions: both sexes, human
Experimental: (§1) (Abstract available in the final supplement of the Journal of Anesthesia and Analgesia, May 2020 (Volume 30, Issue pages 73-74), which is incorporated herein by reference. Healthy volunteers (n=34) aged 18 to 55 of either gender gave informed consent to an 1RB-approved Phase I protocol, NMB was measured by mechanomyography during sevoflurane (0.5 MAC)/N20 (70%) anesthesia. Each volunteer received a single IV bolus of RP1000,

monkeys = conditions: cited from earlier work
dogs = conditions: very high doses (27 and 54×ED95); cited from earlier work
cats = conditions: cited from earlier work
Healthy volunteers = test: Phase I safety and tolerability in humans; format: in vivo, human
Experimental: as §1

Rhesus monkeys = test: Spontaneous recovery from NMB (twitch 5% to 95% of baseline) after bolus or infusion in Rhesus monkeys under isoflurane; format: in vivo, Rhesus monkey; conditions: for 5%-95% Interval: mean ± SD
Experimental: Rhesus monkeys under isoflurane anesthesia were administered a bolus dose of either RP2000 or RP1000 at a dose equal to 1× to 10× the ED95 in Rhesus monkeys of the administered compound (ED95,Rp1000=0.040 mg/kg; ED95,RP2000=0.053 mg/kg). Twitch (0.15 Hz) and TOF (2 Hz×2 seconds) were recorded throughout the 6 -10 hours experiments. Time to spontaneous recovery after bolus administration, characterized by recovery of twitch from 5% to 95% of baseline was measured.
Separately, continuous infusions of 20-180 minutes duration were given (to separate subjects), and after discontinuation of infusion, time to spontaneous recovery of NMB, characterized by recovery of twitch from 5% to 95% of baseline was measured.

With `COc1ccc(C[C@@H]2c3cc(OC)c(OC)cc3CC[N@@+]2(C)CCCOC(=O)/C=C/C(=O)OCCC[N@+]2(C)CCc3cc(OC)c(OC)cc3[C@H]2Cc2ccc(OC)c(OC)c2)cc1OC.[Cl-].[Cl-]` [RP1000] the half-life ([1]; in vivo, intravenous, all dosage groups, read-out: half-life of elimination) was 25 to 26 min, the AUC(0-t) ([1]; plasma, iv, 0.04 mg/kg, single IV bolus 0.04 mg/kg (n = 6), read-out: AUClast, Geometric Mean (converted)) was 132 ng·h/mL and the AUC(0-t) ([1]; plasma, iv, 0.04 mg/kg, single IV bolus 0.04 mg/kg (n = 6), read-out: AUClast, Mean (converted)) was 6.35 ng·h/mL. For the same molecule, the clearance ([1]; plasma, iv, 0.04 mg/kg, single IV bolus 0.04 mg/kg (n = 6), read-out: CL (clearance), Geometric Mean) was 387 mL/min, the clearance ([1]; plasma, iv, 0.04 mg/kg, single IV bolus 0.04 mg/kg (n = 6), read-out: CL (clearance), Mean (SD)) was 400 mL/min and the Cmax ([1]; plasma, iv, 0.04 mg/kg, single IV bolus 0.04 mg/kg (n = 6), read-out: Cmax, Geometric Mean) was 2360 ng/mL. It also gave a Cmax ([1]; plasma, iv, 0.04 mg/kg, single IV bolus 0.04 mg/kg (n = 6), read-out: Cmax, Mean) of 2540 ng/mL, a Vd ([1]; plasma, iv, 0.04 mg/kg, single IV bolus 0.04 mg/kg (n = 6), read-out: Vss (volume at steady state), Geometric Mean) of 9.33 L and a Vd ([1]; plasma, iv, 0.04 mg/kg, single IV bolus 0.04 mg/kg (n = 6), read-out: Vss (volume at steady state), Mean) of 9.54 L. The half-life ([1]; plasma, iv, 0.04 mg/kg, single IV bolus 0.04 mg/kg (n = 6), read-out: t1/2 (terminal elimination half-life), Geometric Mean) was 27.4 min, the half-life ([1]; plasma, iv, 0.04 mg/kg, single IV bolus 0.04 mg/kg (n = 6), read-out: t1/2 (terminal elimination half-life), Mean (SD)) was 29 min and the AUC(0-t) ([1]; plasma, iv, 0.06 mg/kg, single IV bolus 0.06 mg/kg (n = 6), read-out: AUClast, Geometric Mean (converted)) was 160 ng·h/mL. The AUC(0-t) ([1]; plasma, iv, 0.06 mg/kg, single IV bolus 0.06 mg/kg (n = 6), read-out: AUClast, Mean (converted)) was 153 ng·h/mL, the clearance ([1]; plasma, iv, 0.06 mg/kg, single IV bolus 0.06 mg/kg (n = 6), read-out: CL (clearance), Geometric Mean) was 399 mL/min and the clearance ([1]; plasma, iv, 0.06 mg/kg, single IV bolus 0.06 mg/kg (n = 6), read-out: CL (clearance), Mean (SD)) was 409 mL/min. It also gave a Cmax ([1]; plasma, iv, 0.06 mg/kg, single IV bolus 0.06 mg/kg (n = 6), read-out: Cmax, Geometric Mean) of 2600 ng/mL, a Cmax ([1]; plasma, iv, 0.06 mg/kg, single IV bolus 0.06 mg/kg (n = 6), read-out: Cmax, Mean) of 3070 ng/mL and a Vd ([1]; plasma, iv, 0.06 mg/kg, single IV bolus 0.06 mg/kg (n = 6), read-out: Vss (volume at steady state), Geometric Mean) of 8.8 L. It also gave a Vd ([1]; plasma, iv, 0.06 mg/kg, single IV bolus 0.06 mg/kg (n = 6), read-out: Vss (volume at steady state), Mean) of 8.92 L, a half-life ([1]; plasma, iv, 0.06 mg/kg, single IV bolus 0.06 mg/kg (n = 6), read-out: t1/2 (terminal elimination half-life), Geometric Mean) of 26.3 min and a half-life ([1]; plasma, iv, 0.06 mg/kg, single IV bolus 0.06 mg/kg (n = 6), read-out: t1/2 (terminal elimination half-life), Mean (SD)) of 26 min. The AUC(0-t) ([1]; plasma, iv, 0.08 mg/kg, single IV bolus 0.08 mg/kg (n = 6), read-out: AUClast, Geometric Mean (converted)) was 248 ng·h/mL, the AUC(0-t) ([1]; plasma, iv, 0.08 mg/kg, single IV bolus 0.08 mg/kg (n = 6), read-out: AUClast, Mean (converted)) was 235 ng·h/mL and the clearance ([1]; plasma, iv, 0.08 mg/kg, single IV bolus 0.08 mg/kg (n = 6), read-out: CL (clearance), Geometric Mean) was 387 mL/min. For the same molecule, the clearance ([1]; plasma, iv, 0.08 mg/kg, single IV bolus 0.08 mg/kg (n = 6), read-out: CL (clearance), Mean (SD)) was 390 mL/min, the Cmax ([1]; plasma, iv, 0.08 mg/kg, single IV bolus 0.08 mg/kg (n = 6), read-out: Cmax, Geometric Mean) was 3610 ng/mL and the Cmax ([1]; plasma, iv, 0.08 mg/kg, single IV bolus 0.08 mg/kg (n = 6), read-out: Cmax, Mean) was 4040 ng/mL. For the same molecule, the Vd ([1]; plasma, iv, 0.08 mg/kg, single IV bolus 0.08 mg/kg (n = 6), read-out: Vss (volume at steady state), Geometric Mean) was 9.58 L, the Vd ([1]; plasma, iv, 0.08 mg/kg, single IV bolus 0.08 mg/kg (n = 6), read-out: Vss (volume at steady state), Mean) was 9.65 L and the half-life ([1]; plasma, iv, 0.08 mg/kg, single IV bolus 0.08 mg/kg (n = 6), read-out: t1/2 (terminal elimination half-life), Geometric Mean) was 27 min. It also gave a half-life ([1]; plasma, iv, 0.08 mg/kg, single IV bolus 0.08 mg/kg (n = 6), read-out: t1/2 (terminal elimination half-life), Mean (SD)) of 27 min, an AUC(0-t) ([1]; plasma, iv, 0.1 mg/kg, single IV bolus 0.10 mg/kg (n = 6), read-out: AUClast, Geometric Mean (converted)) of 303 ng·h/mL and an AUC(0-t) ([1]; plasma, iv, 0.1 mg/kg, single IV bolus 0.10 mg/kg (n = 6), read-out: AUClast, Mean (converted)) of 291 ng·h/mL. It also gave a clearance ([1]; plasma, iv, 0.1 mg/kg, single IV bolus 0.10 mg/kg (n = 6), read-out: CL (clearance), Geometric Mean) of 438 mL/min, a clearance ([1]; plasma, iv, 0.1 mg/kg, single IV bolus 0.10 mg/kg (n = 6), read-out: CL (clearance), Mean (SD)) of 443 mL/min and a Cmax ([1]; plasma, iv, 0.1 mg/kg, single IV bolus 0.10 mg/kg (n = 6), read-out: Cmax, Geometric Mean) of 5020 ng/mL. The Cmax ([1]; plasma, iv, 0.1 mg/kg, single IV bolus 0.10 mg/kg (n = 6), read-out: Cmax, Mean) was 5270 ng/mL, the Vd ([1]; plasma, iv, 0.1 mg/kg, single IV bolus 0.10 mg/kg (n = 6), read-out: Vss (volume at steady state), Geometric Mean) was 9.02 L and the Vd ([1]; plasma, iv, 0.1 mg/kg, single IV bolus 0.10 mg/kg (n = 6), read-out: Vss (volume at steady state), Mean) was 9.12 L. It also gave a half-life ([1]; plasma, iv, 0.1 mg/kg, single IV bolus 0.10 mg/kg (n = 6), read-out: t1/2 (terminal elimination half-life), Geometric Mean) of 23.9 min, a half-life ([1]; plasma, iv, 0.1 mg/kg, single IV bolus 0.10 mg/kg (n = 6), read-out: t1/2 (terminal elimination half-life), Mean (SD)) of 24 min and an AUC(0-t) ([1]; plasma, iv, 0.14 mg/kg, single IV bolus 0.14 mg/kg (n = 4), read-out: AUClast, Geometric Mean (converted)) of 507 ng·h/mL. For the same molecule, the AUC(0-t) ([1]; plasma, iv, 0.14 mg/kg, single IV bolus 0.14 mg/kg (n = 4), read-out: AUClast, Mean (converted)) was 481 ng·h/mL, the clearance ([1]; plasma, iv, 0.14 mg/kg, single IV bolus 0.14 mg/kg (n = 4), read-out: CL (clearance), Geometric Mean) was 366 mL/min and the clearance ([1]; plasma, iv, 0.14 mg/kg, single IV bolus 0.14 mg/kg (n = 4), read-out: CL (clearance), Mean (SD)) was 368 mL/min. The Cmax ([1]; plasma, iv, 0.14 mg/kg, single IV bolus 0.14 mg/kg (n = 4), read-out: Cmax, Geometric Mean) was 9120 ng/mL, the Cmax ([1]; plasma, iv, 0.14 mg/kg, single IV bolus 0.14 mg/kg (n = 4), read-out: Cmax, Mean) was 10300 ng/mL and the Vd ([1]; plasma, iv, 0.14 mg/kg, single IV bolus 0.14 mg/kg (n = 4), read-out: Vss (volume at steady state), Geometric Mean) was 7.84 L. The Vd ([1]; plasma, iv, 0.14 mg/kg, single IV bolus 0.14 mg/kg (n = 4), read-out: Vss (volume at steady state), Mean) was 7.96 L, the half-life ([1]; plasma, iv, 0.14 mg/kg, single IV bolus 0.14 mg/kg (n = 4), read-out: t1/2 (terminal elimination half-life), Geometric Mean) was 24.8 min and the half-life ([1]; plasma, iv, 0.14 mg/kg, single IV bolus 0.14 mg/kg (n = 4), read-out: t1/2 (terminal elimination half-life), Mean (SD)) was 25 min. For the same molecule, the “effects on autonomic or circulatory systems” value (monkeys) was “no observed ill-elects on autonomic or circulatory systems”, the “decrease in mean arterial pressure” value (dogs) was 20% and the “increase in heart rate” value (dogs) was 20%. The “effects on autonomic or circulatory systems” value (cats) was “no observed ill-elects on autonomic or circulatory systems”, the tolerability (Healthy volunteers; healthy volunteers, 0.02 mg/kg to 0.14 mg/kg) was “generally well-tolerated” and the cardiopulmonary side effects (Healthy volunteers; humans, doses up to 0.14 mg/kg) was “did not result in significant cardiopulmonary side effects”. The “signs of histamine release” value (Healthy volunteers; humans, doses up to 0.14 mg/kg) was “nor any signs of histamine release”, the “ED95 in Rhesus monkeys” value (Rhesus monkeys; Rhesus monkeys, isoflurane anesthesia) was 0.040 mg/kg and the “5%-95% Interval” value (Rhesus monkeys; after continuous infusion of 20-180 minutes) was 13.1 ± 3.7 min. The “5%-95% Interval” value (Rhesus monkeys; bolus dose 0.05 mg/kg) was 15.3 ± 7.5 min, the “5%-95% Interval” value (Rhesus monkeys; bolus dose 0.10 mg/kg) was 14.3 ± 6.5 min and the “5%-95% Interval” value (Rhesus monkeys; bolus dose 0.20 mg/kg) was 13.3 ± 4.4 min. For the same molecule, the “5%-95% Interval” value (Rhesus monkeys; bolus dose 0.40 mg/kg) was 15.5 ± 5.1 min.
